# Data published in BindingDB's records for doi:10.1016/j.bmcl.2011.03.003 (Sanofi-Aventis, 2011).
# Molecular target: Insulin-like growth factor 1 receptor (Homo sapiens, UniProt P08069)
# Assay: Inhibition of IGF-induced autophosphosphorylation of GST-tagged human IGF1R expressed in SF21 cells by time resolved-fluorescent assay
# Insulin-like growth factor 1 receptor, sequence (P08069 31-736 limits assumed): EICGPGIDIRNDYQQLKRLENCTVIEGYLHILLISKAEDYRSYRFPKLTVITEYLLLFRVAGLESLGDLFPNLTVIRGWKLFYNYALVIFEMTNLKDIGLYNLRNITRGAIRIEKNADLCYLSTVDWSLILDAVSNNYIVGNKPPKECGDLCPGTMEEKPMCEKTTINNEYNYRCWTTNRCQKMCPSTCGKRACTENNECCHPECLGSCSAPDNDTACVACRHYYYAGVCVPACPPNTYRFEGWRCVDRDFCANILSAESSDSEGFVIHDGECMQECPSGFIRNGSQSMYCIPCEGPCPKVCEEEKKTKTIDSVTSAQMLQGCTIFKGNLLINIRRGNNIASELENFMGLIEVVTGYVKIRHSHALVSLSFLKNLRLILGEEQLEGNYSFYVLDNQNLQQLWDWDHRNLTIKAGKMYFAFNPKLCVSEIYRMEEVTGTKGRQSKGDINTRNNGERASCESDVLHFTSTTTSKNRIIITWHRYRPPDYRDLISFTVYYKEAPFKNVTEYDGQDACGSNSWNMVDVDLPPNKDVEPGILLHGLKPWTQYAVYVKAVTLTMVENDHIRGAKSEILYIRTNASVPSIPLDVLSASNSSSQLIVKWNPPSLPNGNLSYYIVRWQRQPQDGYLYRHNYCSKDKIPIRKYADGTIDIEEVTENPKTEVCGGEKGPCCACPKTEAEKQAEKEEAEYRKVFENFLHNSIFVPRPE
# Insulin-like growth factor 1 receptor, sequence (P08069 741-1367 limits assumed): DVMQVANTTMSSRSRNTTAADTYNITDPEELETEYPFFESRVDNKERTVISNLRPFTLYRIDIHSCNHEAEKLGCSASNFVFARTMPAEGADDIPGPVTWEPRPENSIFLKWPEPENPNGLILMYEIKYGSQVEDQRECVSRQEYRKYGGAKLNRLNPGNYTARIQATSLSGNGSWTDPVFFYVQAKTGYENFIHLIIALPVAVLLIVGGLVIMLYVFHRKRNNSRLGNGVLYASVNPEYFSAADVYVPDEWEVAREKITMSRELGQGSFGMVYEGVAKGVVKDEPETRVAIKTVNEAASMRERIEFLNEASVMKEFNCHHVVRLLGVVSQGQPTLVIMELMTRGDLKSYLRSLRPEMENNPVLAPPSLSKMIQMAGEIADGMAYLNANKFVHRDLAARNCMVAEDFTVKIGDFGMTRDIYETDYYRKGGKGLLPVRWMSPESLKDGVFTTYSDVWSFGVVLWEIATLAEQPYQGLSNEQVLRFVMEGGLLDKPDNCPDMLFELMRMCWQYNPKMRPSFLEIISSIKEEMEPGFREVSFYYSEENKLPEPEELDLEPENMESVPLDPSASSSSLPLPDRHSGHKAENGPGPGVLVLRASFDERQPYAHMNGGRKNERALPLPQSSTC
row,Compound,IC50
1,"Cc1c(O)n(-c2ccc(S(=O)(=O)C(F)(F)F)cc2)c(=O)n1Cc1cncc2ccccc12 [(S)-1-(isoquinolin-4-ylmethyl)-5-methyl-3-(4-(trifluoromethylsulfonyl)phenyl)imidazolidine-2,4-dione]",> 100 µM
2,"Cc1c(O)n(-c2ccc(S(C)(=O)=O)cc2)c(=O)n1Cc1ccnc2ccccc12 [(S)-5-methyl-3-(4-(methylsulfonyl)phenyl)-1-(quinolin-4-ylmethyl)imidazolidine-2,4-dione]",> 100 µM
3,"Cc1c(O)n(-c2ccc(S(=O)(=O)C(F)(F)F)cc2)c(=O)n1CC1CCNCC1 [(S)-5-methyl-1-(piperidin-4-ylmethyl)-3-(4-(trifluoromethylsulfonyl)phenyl)imidazolidine-2,4-dione]",> 100 µM
4,"Cc1c(O)n(-c2ccc(S(=O)(=O)C(F)(F)F)cc2)c(=O)n1Cc1ccccn1 [(S)-5-methyl-1-(pyridin-2-ylmethyl)-3-(4-(trifluoromethylsulfonyl)phenyl)imidazolidine-2,4-dione]",> 100 µM
5,"Cc1c(O)n(-c2ccc(S(=O)(=O)C(F)(F)F)cc2)c(=O)n1Cc1cc[n+]([O-])c2ccccc12 [(S)-4-((5-methyl-2,4-dioxo-3-(4-(trifluoromethylsulfonyl)phenyl)imidazolidin-1-yl)methyl)quinoline 1-oxide]",> 100 µM
6,"Cc1c(O)n(-c2ccc(S(=O)(=O)C(F)(F)F)cc2)c(=O)n1Cc1ccccc1 [(S)-1-benzyl-5-methyl-3-(4-(trifluoromethylsulfonyl)phenyl)imidazolidine-2,4-dione]",> 100 µM
7,"Cc1c(O)n(-c2ccc(S(=O)(=O)C(F)(F)F)cc2)c(=O)n1Cc1cc[n+]([O-])cc1 [(S)-4-((5-methyl-2,4-dioxo-3-(4-(trifluoromethylsulfonyl)phenyl)imidazolidin-1-yl)methyl)pyridine 1-oxide]",> 100 µM
8,"Cc1c(O)n(-c2ccc(S(=O)(=O)C(F)(F)F)cc2)c(=O)n1Cc1cnc[nH]1 [(S)-1-((1H-imidazol-4-yl)methyl)-5-methyl-3-(4-(trifluoromethylsulfonyl)phenyl)imidazolidine-2,4-dione]",> 100 µM
